Assay results from patent US20070196856A1, “Methods of determining activity of ryanodine receptor modulators” (Allergan, Inc., priority 2006, published 2007).

Test system: ryanodine receptors

O=C1CN(/N=C/c2ccc(-c3ccc([N+](=O)[O-])cc3)o2)C(O)=N1 [dantrolene, Dantrolene]
caffeine-induced Ca++ release (1.5 mM caffeine + 20 mM dantrolene, 5 minutes dantrolene pretreatment, retinal ganglion cells, FIG. 1 trace 2): blocked | caffeine effect after washout (washout of dantrolene with 12.5 mM caffeine alone, FIG. 1 trace 3): recovered partially
